The text below walks through data of patent US8003649B2 (AstraZeneca AB, priority 2007, dated 2011).

A value given as a limit tells only on which side of the number the result lay.

The target of the assay is T1, Androgen Receptor (AR) (Homo sapiens, UniProt P10275, T878A).
T1 construct: cell based immuno-fluorescence assay using the LNCaP prostate epithelial cell line; endogenous in cells; host or cells: LNCaP clone FGC (ATCC CRL-1740)
T1 sequence (P10275 1-920 T878A): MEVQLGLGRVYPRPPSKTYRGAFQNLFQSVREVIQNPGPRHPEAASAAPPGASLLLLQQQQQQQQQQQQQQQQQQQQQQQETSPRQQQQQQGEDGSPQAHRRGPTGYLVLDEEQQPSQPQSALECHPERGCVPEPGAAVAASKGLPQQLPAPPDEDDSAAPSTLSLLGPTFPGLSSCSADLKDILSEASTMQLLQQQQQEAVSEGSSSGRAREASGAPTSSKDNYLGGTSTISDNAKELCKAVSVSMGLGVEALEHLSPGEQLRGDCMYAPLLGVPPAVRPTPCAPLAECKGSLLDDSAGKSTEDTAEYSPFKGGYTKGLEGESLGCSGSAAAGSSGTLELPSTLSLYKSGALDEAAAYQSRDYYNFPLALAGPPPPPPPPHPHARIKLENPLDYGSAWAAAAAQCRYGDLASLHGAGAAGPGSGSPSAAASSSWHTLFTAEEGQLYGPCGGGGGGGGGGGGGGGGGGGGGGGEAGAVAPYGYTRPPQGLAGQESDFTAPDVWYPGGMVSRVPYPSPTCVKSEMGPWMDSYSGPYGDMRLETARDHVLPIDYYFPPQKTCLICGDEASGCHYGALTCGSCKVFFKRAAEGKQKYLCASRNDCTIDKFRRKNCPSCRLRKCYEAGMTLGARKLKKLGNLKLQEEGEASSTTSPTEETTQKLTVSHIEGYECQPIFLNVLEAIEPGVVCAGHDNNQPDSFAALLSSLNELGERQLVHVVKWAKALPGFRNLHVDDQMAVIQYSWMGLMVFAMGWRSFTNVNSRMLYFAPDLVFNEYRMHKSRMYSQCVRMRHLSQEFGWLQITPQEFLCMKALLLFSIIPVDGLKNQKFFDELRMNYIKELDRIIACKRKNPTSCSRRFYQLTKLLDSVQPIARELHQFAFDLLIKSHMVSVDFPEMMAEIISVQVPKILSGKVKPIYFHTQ
In words: LNCaP Androgen Receptor Down-regulation Cell Assay (immunofluorescence end point). The conditions noted are these: LNCaP prostate carcinoma cells, compound incubation 20-22 hours, 50% reduction of the AR signal; read-out: Androgen Receptor Down-regulation Assay (a) IC50/μM. It counts as cell-based. In short, it runs like this:
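AR loss reported as IC50 from curve fits of fluorescence dose-response data, with AR immunostained and read by laser-scanning cytometry. Compound exposure was 20-22 h at 37° C in LNCaP cells grown in 5% charcoal-stripped FBS and plated overnight beforehand.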
For `FC(F)(F)c1nnc2ccc(N3CCC(Oc4cccc(OCCCN5CCNCC5)c4)CC3)nn12` [Example 445], the DC50 stood at 1.6 µM.
With `Fc1cccc(F)c1CN1CCN(c2ccc3nnc(C(F)F)n3n2)CC1` [Example 252], the DC50 is 8.9 µM.
For the molecule `FC(F)(F)c1nnc2ccc(N3CCC(c4c[nH]c5cccnc45)CC3)nn12` [Example 328], the DC50 was determined as 0.75 µM.
`N#Cc1ccc2[nH]cc(C3CCN(c4ccc5nnc(C(F)(F)F)n5n4)CC3)c2c1` [Example 495, 3-[1-[3-(trifluoromethyl)[1,2,4]triazolo[4,3-b]pyridazin-6-yl]piperidin-4-yl]-1H-indole-5-carbonitrile]: the DC50 is 0.35 µM.
In the case of `O=C(CN1CCCC1)Nc1cccc(C2CCN(c3ccc4nnc(C(F)(F)F)n4n3)CC2)c1` [Example 712] it was 3 µM.
As for `Fc1cccc(CN2CCN(c3ccc4nnc(C(F)(F)Cl)n4n3)CC2)c1` [Example 345], the DC50 was 1.1 µM.
Consider `FC(F)(F)c1nnc2ccc(N3CCN(Cc4ccccc4Cl)CC3)nn12` [Example 62, 6-[4-[(2-chlorophenyl)methyl]piperazin-1-yl]-3-(trifluoromethyl)-[1,2,4]triazolo[4,3-b]pyridazine], for which the DC50 stood at 0.72 µM.
In the case of `Cc1ccccc1N1CCN(c2ccc3nnc(C(F)(F)F)n3n2)CC1` [Example 32, 6-[4-(2-methylphenyl)piperazin-1-yl]-3-(trifluoromethyl)-[1,2,4]triazolo[4,3-b]pyridazine] it was 1.6 µM; in that of `FC(F)(F)c1nnc2ccc(N3CCN(Cc4cccc(Cl)c4)CC3)nn12` [Example 97, 6-[4-[(3-chlorophenyl)methyl]piperazin-1-yl]-3-(trifluoromethyl)-[1,2,4]triazolo[4,3-b]pyridazine], 0.36 µM.
For `N#Cc1cccc(CN2CCN(c3ccc4nnc(C(F)(F)F)n4c3)CC2)c1` [Example 188, 3-[[4-[3-(trifluoromethyl)-[1,2,4]triazolo[4,3-a]pyridin-6-yl]piperazin-1-yl]methyl]benzonitrile], the DC50 came to 2.2 µM.
`FC(F)(F)c1nnc2ccc(N3CCC(COc4ccccc4Cl)CC3)nn12` [Example 475]: the DC50 is over 15 µM.
Turning to `CCCc1ccc(CN2CCN(c3ccc4nnc(C(F)(F)F)n4n3)CC2)cc1` [Example 158, 6-[4-[(4-propylphenyl)methyl]piperazin-1-yl]-3-(trifluoromethyl)-[1,2,4]triazolo[4,3-b]pyridazine], the DC50 turned out to be 3 µM.
Take `FC(F)(F)c1nnc2ccc(N3CCN(Cc4cccc5cc[nH]c45)CC3)nn12` [Example 63, 6-[4-(1H-indol-7-ylmethyl)piperazin-1-yl]-3-(trifluoromethyl)-[1,2,4]triazolo[4,3-b]pyridazine]: the DC50 was 1.5 µM.
Turning to `Cc1ccc(Sc2ccc(CN3CCN(c4ccc5nnc(C(F)(F)F)n5n4)CC3)cn2)cc1` [Example 124, 6-[4-[[6-(4-methylphenyl)sulfanylpyridin-3-yl]methyl]piperazin-1-yl]-3-(trifluoromethyl)-[1,2,4]triazolo[4,3-b]pyridazine], the DC50 was determined as 1.7 µM.
Turning to `FC(F)(F)c1nnc2ccc(N3CCN(c4ccc(Br)cn4)CC3)nn12` [Example 11, 6-[4-(5-bromopyridin-2-yl)piperazin-1-yl]-3-(trifluoromethyl)-[1,2,4]triazolo[4,3-b]pyridazine], the DC50 was determined as 2.5 µM.
For the molecule `Fc1cc(CN2CCN(c3ccc4nnc(C(F)F)n4n3)CC2)cc(F)c1F` [Example 818], the DC50 is 3.8 µM.
With `Fc1cccc(CN2CCN(c3ccc4nnc(C(F)(F)F)n4c3)CC2)c1` [Example 189, 6-[4-[(3-fluorophenyl)methyl]piperazin-1-yl]-3-(trifluoromethyl)-[1,2,4]triazolo[4,3-a]pyridine], the DC50 was 1.1 µM.
For the molecule `Fc1ccc(CN2[C@@H]3CC[C@H]2CN(c2ccc4nnc(C(F)(F)F)n4n2)C3)cc1` [Example 839], the DC50 stood at 1.1 µM.
`Fc1ccc(OC2CCN(c3ccc4nnc(C(F)(F)F)n4n3)CC2)cc1` [Example 625]: the DC50 turned out to be 1.4 µM.
In the case of `CN1CCN(CCCOc2ccc(OC3CCN(c4ccc5nnc(C(F)(F)F)n5n4)CC3)cc2)CC1` [Example 437] it was 0.53 µM.
The same measure for `FC(F)(F)c1nnc2ccc(N3CCC(Oc4ccc(Cl)nc4)CC3)nn12` [Example 720]: 2.7 µM; for `FC(F)(F)c1nnc2ccc(N3CCC(Cc4ccccc4)CC3)nn12` [Example 535]: 1.9 µM.
As for `FC(F)(F)c1nnc2ccc(N3CCN(Cc4cnc5ccccc5c4)CC3)nn12` [Example 64, 3-[[4-[3-(trifluoromethyl)[1,2,4]triazolo[4,3-b]pyridazin-6-yl]piperazin-1-yl]methyl]quinoline], the DC50 came to 2.5 µM.
Take `COC(=O)c1ccccc1C1CCN(c2ccc3nnc(C(F)(F)F)n3n2)C1` (stereo not shown) [Example 333]: the DC50 turned out to be 2.7 µM.
`FC(F)(F)c1nnc2ccc(N3CCN(Cc4ccc(Cl)cc4)CC3)cn12` [Example 190, 6-[4-[(4-chlorophenyl)methyl]piperazin-1-yl]-3-(trifluoromethyl)-[1,2,4]triazolo[4,3-a]pyridine]: the DC50 was found to be 0.79 µM.
On to `FC(F)c1cccc(CN2CCN(c3ccc4nnc(C(F)F)n4n3)CC2)c1` [Example 825, 3-(difluoromethyl)-6-[4-[3-(difluoromethyl)benzyl]piperazin-1-yl][1,2,4]triazolo[4,3-b]pyridazine], for which the DC50 came out at 1.9 µM.
`Cc1cc(CNC(=O)c2ccc(C3CCN(c4ccc5nnc(C(F)(F)F)n5n4)CC3)cc2)no1` [Example 640]: the DC50 worked out at 0.92 µM.
Take `C[C@@H]1CN(Cc2cc(F)cc(F)c2)CCN1c1ccc2nnc(C(F)(F)F)n2n1` [Example 602]: the DC50 was found to be 1.6 µM.
As to `CN(Cc1ccc(C#N)cc1)C1CCN(c2ccc3nnc(C(F)(F)F)n3n2)CC1` [Example 409], the DC50 is 3.9 µM.
For the molecule `Fc1cc(F)c(F)c(CN2CCN(c3ccc4nnc(C(F)(F)F)n4n3)CC2)c1` [Example 763], the DC50 is over 9.8 µM.
Regarding `FC(F)c1nnc2ccc(N3CCN(Cc4cccc(C(F)(F)F)c4)CC3)nn12` [Example 255], the DC50 was 1.8 µM.
Turning to `FC(F)(F)c1nnc2ccc(N3CCC(OCC4CC4)CC3)nn12` [Example 304, 6-[4-(cyclopropylmethoxy)piperidin-1-yl]-3-(trifluoromethyl)[1,2,4]triazolo[4,3-b]pyridazine], the DC50 is 1.8 µM.
In the case of `FC(F)(F)c1nnc2ccc(N3CCC(Oc4cccc(Cl)n4)CC3)nn12` [Example 716], the DC50 was 0.81 µM.
For `C[C@H]1CN(Cc2ccc(C(F)(F)F)nc2)CCN1c1ccc2nnc(C(F)(F)F)n2n1` [Example 361], the DC50 is 4.7 µM.
On to `FC(F)(F)c1nnc2ccc(N3CCN(CCc4ccccc4Cl)CC3)nn12` [Example 232], for which the DC50 is 3.6 µM.
Consider `Cc1cc(CN2CCN(c3ccc4nnc(C(F)(F)F)n4n3)CC2)oc1C` [Example 98, 6-[4-[(4,5-dimethylfuran-2-yl)methyl]piperazin-1-yl]-3-(trifluoromethyl)-[1,2,4]triazolo[4,3-b]pyridazine], for which the DC50 amounted to 2.3 µM.
In the case of `COc1ccccc1C1(O)CCN(c2ccc3nnc(C(F)(F)F)n3n2)CC1` [Example 314] it was 4.6 µM; in that of `FC(F)(Cl)c1nnc2ccc(N3CCN(c4c(Cl)cncc4Cl)CC3)nn12` [Example 339, 3-[chloro(difluoro)methyl]-6-[4-(3,5-dichloropyridin-4-yl)piperazin-1-yl][1,2,4]triazolo[4,3-b]pyridazine], 0.77 µM.
Consider `FC(F)(F)c1nnc2ccc(N3CCC(c4cccc(OCCN5CCNCC5)c4)CC3)nn12` [Example 672], for which the DC50 turned out to be 0.58 µM.
Turning to `OC1(c2ccccc2F)CCN(c2ccc3nnc(C(F)(F)F)n3n2)CC1` [Example 549], the DC50 was found to be 1.6 µM.
Regarding `N#Cc1cccc(CN2CCN(c3ccc4nnc(C(F)(F)Cl)n4n3)CC2)c1` [Example 343], the DC50 is 1.7 µM.
As to `CN(C)CCCOc1ccc(C2CCN(c3ccc4nnc(C(F)(F)F)n4n3)CC2)cc1` [Example 726], the DC50 worked out at 1.4 µM.
`N#Cc1ccc(CN2CCN(c3ccc4nnc(C(F)(F)F)n4n3)CC2)cn1` [Example 838, 5-[[4-[3-(trifluoromethyl)[1,2,4]triazolo[4,3-b]pyridazin-6-yl]piperazin-1-yl]methyl]pyridine-2-carbonitrile]: the DC50 stood at 7.6 µM.
